Oligonucleotides are written 5' to 3', each unit as a sugar letter and its base; * is a phosphorothioate linkage, no mark a phosphodiester; rarer units and linkages stand in square brackets, end groups in braces. Plain capitals give the bases only. Oligonucleotides are given in HELM: sugar(base)linkage, 5' to 3'; d 2'-deoxyribose, r ribose, m 2'-O-methylribose, p phosphate. ss, as = sense and antisense strand; d = 2'-deoxy (DNA); r = 2'-OH (RNA)
Note: test concentration or dose not given here.

One data set concerns the target SOST. The data set is described as follows: reporter assay of Huesken 2005. The settings on record: siRNA.
On to “RNA1{r(A)p.r(A)p.r(A)p.r(U)p.r(C)p.r(A)p.r(U)p.r(C)p.r(C)p.r(C)p.r(C)p.r(G)p.r(A)p.r(G)p.r(C)p.r(U)p.r(C)p.r(G)p.r(G)p.d(T)p.d(T)}|RNA2{r(C)p.r(C)p.r(G)p.r(A)p.r(G)p.r(C)p.r(U)p.r(C)p.r(G)p.r(G)p.r(G)p.r(G)p.r(A)p.r(U)p.r(G)p.r(A)p.r(U)p.r(U)p.r(U)p.d(C)p.d(C)}$$$RNA1{StrandType:ss}|RNA2{StrandType:as}$”, for which the normalised inhibition (eCFP-eYFP dual reporter) was 49.8%.

Substance “RNA1{r(A)p.r(A)p.r(C)p.r(A)p.r(A)p.r(G)p.r(A)p.r(C)p.r(C)p.r(A)p.r(U)p.r(G)p.r(A)p.r(A)p.r(C)p.r(C)p.r(G)p.r(G)p.r(G)p.d(T)p.d(T)}|RNA2{r(C)p.r(C)p.r(C)p.r(G)p.r(G)p.r(U)p.r(U)p.r(C)p.r(A)p.r(U)p.r(G)p.r(G)p.r(U)p.r(C)p.r(U)p.r(U)p.r(G)p.r(U)p.r(U)p.d(G)p.d(T)}$$$RNA1{StrandType:ss}|RNA2{StrandType:as}$” displayed a normalised inhibition (eCFP-eYFP dual reporter) of 69.7%.

For the substance “RNA1{r(A)p.r(A)p.r(G)p.r(A)p.r(C)p.r(G)p.r(U)p.r(G)p.r(U)p.r(C)p.r(C)p.r(G)p.r(A)p.r(G)p.r(U)p.r(A)p.r(C)p.r(A)p.r(G)p.d(T)p.d(T)}|RNA2{r(C)p.r(U)p.r(G)p.r(U)p.r(A)p.r(C)p.r(U)p.r(C)p.r(G)p.r(G)p.r(A)p.r(C)p.r(A)p.r(C)p.r(G)p.r(U)p.r(C)p.r(U)p.r(U)p.d(T)p.d(G)}$$$RNA1{StrandType:ss}|RNA2{StrandType:as}$”, the normalised inhibition (eCFP-eYFP dual reporter) was determined as 87.1%.

Substance “RNA1{r(A)p.r(A)p.r(G)p.r(G)p.r(A)p.r(C)p.r(U)p.r(U)p.r(C)p.r(G)p.r(G)p.r(G)p.r(A)p.r(C)p.r(C)p.r(G)p.r(A)p.r(G)p.r(G)p.d(T)p.d(T)}|RNA2{r(C)p.r(C)p.r(U)p.r(C)p.r(G)p.r(G)p.r(U)p.r(C)p.r(C)p.r(C)p.r(G)p.r(A)p.r(A)p.r(G)p.r(U)p.r(C)p.r(C)p.r(U)p.r(U)p.d(G)p.d(A)}$$$RNA1{StrandType:ss}|RNA2{StrandType:as}$” gave a normalised inhibition (eCFP-eYFP dual reporter) of 58.7%.

“RNA1{r(A)p.r(C)p.r(A)p.r(A)p.r(C)p.r(A)p.r(A)p.r(G)p.r(A)p.r(C)p.r(C)p.r(A)p.r(U)p.r(G)p.r(A)p.r(A)p.r(C)p.r(C)p.r(G)p.d(T)p.d(T)}|RNA2{r(C)p.r(G)p.r(G)p.r(U)p.r(U)p.r(C)p.r(A)p.r(U)p.r(G)p.r(G)p.r(U)p.r(C)p.r(U)p.r(U)p.r(G)p.r(U)p.r(U)p.r(G)p.r(U)p.d(T)p.d(C)}$$$RNA1{StrandType:ss}|RNA2{StrandType:as}$”: the normalised inhibition (eCFP-eYFP dual reporter) turned out to be 52.2%.

Regarding “RNA1{r(A)p.r(C)p.r(C)p.r(A)p.r(U)p.r(G)p.r(A)p.r(A)p.r(C)p.r(C)p.r(G)p.r(G)p.r(G)p.r(C)p.r(G)p.r(G)p.r(A)p.r(G)p.r(A)p.d(T)p.d(T)}|RNA2{r(U)p.r(C)p.r(U)p.r(C)p.r(C)p.r(G)p.r(C)p.r(C)p.r(C)p.r(G)p.r(G)p.r(U)p.r(U)p.r(C)p.r(A)p.r(U)p.r(G)p.r(G)p.r(U)p.d(C)p.d(T)}$$$RNA1{StrandType:ss}|RNA2{StrandType:as}$”, the normalised inhibition (eCFP-eYFP dual reporter) was 69.5%.

“RNA1{r(A)p.r(C)p.r(C)p.r(G)p.r(G)p.r(A)p.r(G)p.r(C)p.r(U)p.r(G)p.r(G)p.r(A)p.r(G)p.r(A)p.r(A)p.r(C)p.r(A)p.r(A)p.r(C)p.d(T)p.d(T)}|RNA2{r(G)p.r(U)p.r(U)p.r(G)p.r(U)p.r(U)p.r(C)p.r(U)p.r(C)p.r(C)p.r(A)p.r(G)p.r(C)p.r(U)p.r(C)p.r(C)p.r(G)p.r(G)p.r(U)p.d(G)p.d(G)}$$$RNA1{StrandType:ss}|RNA2{StrandType:as}$” had a normalised inhibition (eCFP-eYFP dual reporter) of 83.3%.

Turning to “RNA1{r(A)p.r(C)p.r(G)p.r(U)p.r(G)p.r(U)p.r(C)p.r(C)p.r(G)p.r(A)p.r(G)p.r(U)p.r(A)p.r(C)p.r(A)p.r(G)p.r(C)p.r(U)p.r(G)p.d(T)p.d(T)}|RNA2{r(C)p.r(A)p.r(G)p.r(C)p.r(U)p.r(G)p.r(U)p.r(A)p.r(C)p.r(U)p.r(C)p.r(G)p.r(G)p.r(A)p.r(C)p.r(A)p.r(C)p.r(G)p.r(U)p.d(C)p.d(T)}$$$RNA1{StrandType:ss}|RNA2{StrandType:as}$”, the normalised inhibition (eCFP-eYFP dual reporter) came out at 74.9%.

In turn, “RNA1{r(A)p.r(G)p.r(A)p.r(C)p.r(C)p.r(A)p.r(U)p.r(G)p.r(A)p.r(A)p.r(C)p.r(C)p.r(G)p.r(G)p.r(G)p.r(C)p.r(G)p.r(G)p.r(A)p.d(T)p.d(T)}|RNA2{r(U)p.r(C)p.r(C)p.r(G)p.r(C)p.r(C)p.r(C)p.r(G)p.r(G)p.r(U)p.r(U)p.r(C)p.r(A)p.r(U)p.r(G)p.r(G)p.r(U)p.r(C)p.r(U)p.d(T)p.d(G)}$$$RNA1{StrandType:ss}|RNA2{StrandType:as}$” registered a normalised inhibition (eCFP-eYFP dual reporter) of 78.8%.

Take “RNA1{r(A)p.r(G)p.r(C)p.r(U)p.r(C)p.r(A)p.r(A)p.r(G)p.r(G)p.r(A)p.r(C)p.r(U)p.r(U)p.r(C)p.r(G)p.r(G)p.r(G)p.r(A)p.r(C)p.d(T)p.d(T)}|RNA2{r(G)p.r(U)p.r(C)p.r(C)p.r(C)p.r(G)p.r(A)p.r(A)p.r(G)p.r(U)p.r(C)p.r(C)p.r(U)p.r(U)p.r(G)p.r(A)p.r(G)p.r(C)p.r(U)p.d(C)p.d(C)}$$$RNA1{StrandType:ss}|RNA2{StrandType:as}$”: the normalised inhibition (eCFP-eYFP dual reporter) is 64.7%.

As to “RNA1{r(A)p.r(G)p.r(C)p.r(U)p.r(G)p.r(C)p.r(U)p.r(G)p.r(U)p.r(G)p.r(U)p.r(C)p.r(C)p.r(C)p.r(G)p.r(G)p.r(U)p.r(G)p.r(G)p.d(T)p.d(T)}|RNA2{r(C)p.r(C)p.r(A)p.r(C)p.r(C)p.r(G)p.r(G)p.r(G)p.r(A)p.r(C)p.r(A)p.r(C)p.r(A)p.r(G)p.r(C)p.r(A)p.r(G)p.r(C)p.r(U)p.d(G)p.d(C)}$$$RNA1{StrandType:ss}|RNA2{StrandType:as}$”, the normalised inhibition (eCFP-eYFP dual reporter) worked out at 66%.

A further data set concerns the target UBE2M. The data set is described as follows: reporter assay of Huesken 2005. The note with it: siRNA.
In turn, “sense rGrGrGrCrGrGrCrArCrCrArArGrGrGrCrArGrCdTdT / antisense rGrCrUrGrCrCrCrUrUrGrGrUrGrCrCrGrCrCrCdGdC” returned a normalised inhibition (eCFP-eYFP dual reporter) of 64.9%.

The substance “sense rGrGrGrUrGrGrCrUrArCrArUrCrGrGrCrUrCrCdTdT / antisense rGrGrArGrCrCrGrArUrGrUrArGrCrCrArCrCrCdCdG” came in with a normalised inhibition (eCFP-eYFP dual reporter) of 58.1%.

Turning to “sense rGrGrUrCrUrArUrCrArCrCrCrCrArArCrArUrUdTdT / antisense rArArUrGrUrUrGrGrGrGrUrGrArUrArGrArCrCdAdT”, the normalised inhibition (eCFP-eYFP dual reporter) came out at 79.7%.

Substance “sense rGrGrUrGrArArGrUrGrUrGrArGrArCrArArUrGdTdT / antisense rCrArUrUrGrUrCrUrCrArCrArCrUrUrCrArCrCdTdT” displayed a normalised inhibition (eCFP-eYFP dual reporter) of 81.7%.

With “sense rGrUrCrArUrCrUrGrUrCrCrUrGrArUrGrArGrGdTdT / antisense rCrCrUrCrArUrCrArGrGrArCrArGrArUrGrArCdCdA”, the normalised inhibition (eCFP-eYFP dual reporter) is 58.9%.

The substance “sense rGrUrCrCrUrGrArUrGrArGrGrGrCrUrUrCrUrAdTdT / antisense rUrArGrArArGrCrCrCrUrCrArUrCrArGrGrArCdAdG” displayed a normalised inhibition (eCFP-eYFP dual reporter) of 80.3%.

On to “sense rGrUrCrCrUrUrArCrGrArUrArArArCrUrCrCrAdTdT / antisense rUrGrGrArGrUrUrUrArUrCrGrUrArArGrGrArCdTdG”, for which the normalised inhibition (eCFP-eYFP dual reporter) turned out to be 76.7%.

Substance “sense rGrUrGrArUrArUrCrArGrCrUrUrCrUrCrArGrAdTdT / antisense rUrCrUrGrArGrArArGrCrUrGrArUrArUrCrArCdAdC” had a normalised inhibition (eCFP-eYFP dual reporter) of 70.3%.

Regarding “sense rGrUrGrGrGrCrCrArGrGrGrUrUrArCrCrCrGrCdTdT / antisense rGrCrGrGrGrUrArArCrCrCrUrGrGrCrCrCrArCdCdT”, the normalised inhibition (eCFP-eYFP dual reporter) came to 56.4%.

“sense rGrUrUrCrArGrUrUrUrUrArArGrGrUrGrGrGrCdTdT / antisense rGrCrCrCrArCrCrUrUrArArArArCrUrGrArArCdAdC”: the normalised inhibition (eCFP-eYFP dual reporter) turned out to be 53.9%.

Turning to “sense rUrArArGrGrUrGrGrGrCrCrArGrGrGrUrUrArCdTdT / antisense rGrUrArArCrCrCrUrGrGrCrCrCrArCrCrUrUrAdAdA”, the normalised inhibition (eCFP-eYFP dual reporter) came to 69.9%.

Turning to “sense rUrArArUrUrUrArUrGrGrCrCrUrGrCrArGrUrAdTdT / antisense rUrArCrUrGrCrArGrGrCrCrArUrArArArUrUrAdTdG”, the normalised inhibition (eCFP-eYFP dual reporter) was 67%.

For the substance “sense rUrCrArCrCrCrCrArArCrArUrUrGrArCrCrUrCdTdT / antisense rGrArGrGrUrCrArArUrGrUrUrGrGrGrGrUrGrAdTdA”, the normalised inhibition (eCFP-eYFP dual reporter) was 65.4%.

“sense rUrCrArUrCrUrGrUrCrCrUrGrArUrGrArGrGrGdTdT / antisense rCrCrCrUrCrArUrCrArGrGrArCrArGrArUrGrAdCdC” returned a normalised inhibition (eCFP-eYFP dual reporter) of 57.5%.

The substance “sense rUrCrUrCrUrUrCrUrUrGrGrArGrCrCrCrArArCdTdT / antisense rGrUrUrGrGrGrCrUrCrCrArArGrArArGrArGrAdTdA” yielded a normalised inhibition (eCFP-eYFP dual reporter) of 69.7%.

“sense rUrCrUrUrCrUrUrGrGrArGrCrCrCrArArCrCrCdTdT / antisense rGrGrGrUrUrGrGrGrCrUrCrCrArArGrArArGrAdGdA” registered a normalised inhibition (eCFP-eYFP dual reporter) of 56.1%.

Substance “sense rUrGrArArCrArArGrGrArGrGrCrCrGrCrArGrAdTdT / antisense rUrCrUrGrCrGrGrCrCrUrCrCrUrUrGrUrUrCrAdGdT” came in with a normalised inhibition (eCFP-eYFP dual reporter) of 65.9%.

Take “sense rUrGrCrArGrArArCrArArCrCrGrGrCrGrGrCrUdTdT / antisense rArGrCrCrGrCrCrGrGrUrUrGrUrUrCrUrGrCrAdGdG”: the normalised inhibition (eCFP-eYFP dual reporter) stood at 67.6%.

The substance “sense rUrUrCrUrArCrArArGrArGrUrGrGrGrArArGrUdTdT / antisense rArCrUrUrCrCrCrArCrUrCrUrUrGrUrArGrArAdGdC” showed a normalised inhibition (eCFP-eYFP dual reporter) of 68.9%.

Substance “sense rUrUrUrGrUrGrUrUrCrArGrUrUrUrUrArArGrGdTdT / antisense rCrCrUrUrArArArArCrUrGrArArCrArCrArArAdCdT” yielded a normalised inhibition (eCFP-eYFP dual reporter) of 51.1%.

(Values after the OligoGym collection.)
